# Laboratory results published in PubChem BioAssay AID1963835 (Molecular Pharmacology Branch, DTP, NCI, 2024).
# Tested on: 699152-130-R-J1-PDC complex spheroid viability
# Test: Anticancer human tumor 699152-130-R-J1-PDC patient-derived pancreatic carcinoma cell line growth inhibition [POLQ]
# Conditions: for IC50: curve of first compound; for viability, T/C: stronger effect = lower value
# In short: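 PDC + HUVEC + MSC complex spheroids; POLQ inhibitors ± partner drugs; top conc. at/near clinical Cmax, else 10 microM (SN-38 1 microM), half-log dilutions; 37 degrees C, 5% CO2.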
# [1] = second compound 0.0316 µM, first compound 0.0316 µM
# [2] = second compound 0.0316 µM, first compound 0.1 µM
# [3] = second compound 0.0316 µM, first compound 0.316 µM
# [4] = second compound 0.0316 µM, first compound 1 µM
# [5] = second compound 0.0316 µM, first compound 3.16 µM
# [6] = second compound 0.0316 µM, first compound 10 µM
# [7] = second compound 0.1 µM, first compound 0.0316 µM
# [8] = second compound 0.1 µM, first compound 0.1 µM
# [9] = second compound 0.1 µM, first compound 0.316 µM
# [10] = second compound 0.1 µM, first compound 1 µM
# [11] = second compound 0.1 µM, first compound 3.16 µM
# [12] = second compound 0.1 µM, first compound 10 µM
# [13] = second compound 0.316 µM, first compound 0.0316 µM
# [14] = second compound 0.316 µM, first compound 0.1 µM
# [15] = second compound 0.316 µM, first compound 0.316 µM
# [16] = second compound 0.316 µM, first compound 1 µM
# [17] = second compound 0.316 µM, first compound 3.16 µM
# [18] = second compound 0.316 µM, first compound 10 µM
# [19] = second compound 1 µM, first compound 0.0316 µM
# [20] = second compound 1 µM, first compound 0.1 µM
# [21] = second compound 1 µM, first compound 0.316 µM
# [22] = second compound 1 µM, first compound 1 µM
# [23] = second compound 1 µM, first compound 3.16 µM
# [24] = second compound 1 µM, first compound 10 µM
# [25] = second compound 3.16 µM, first compound 0.0316 µM
# [26] = second compound 3.16 µM, first compound 0.1 µM
# [27] = second compound 3.16 µM, first compound 0.316 µM
# [28] = second compound 3.16 µM, first compound 1 µM
# [29] = second compound 3.16 µM, first compound 3.16 µM
# [30] = second compound 3.16 µM, first compound 10 µM
# [31] = second compound 10 µM, first compound 0.0316 µM
# [32] = second compound 10 µM, first compound 0.1 µM
# [33] = second compound 10 µM, first compound 0.316 µM
# [34] = second compound 10 µM, first compound 1 µM
# [35] = second compound 10 µM, first compound 3.16 µM
# [36] = second compound 10 µM, first compound 10 µM
# 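Note: spheroids exposed to agents for 7 days before viability reading.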
# 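Throughout, for viability, T/C: percent of DMSO vehicle control viability so 100% = vehicle and 0% = no viable signal.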
compound,measurement,setting,value
C=CC(=O)N1CCN(c2nc(=O)n(-c3c(C)ccnc3C(C)C)c3nc(-c4c(O)cccc4F)c(F)cc23)C(C)C1 (stereo not drawn) + COC1C(OC(N)=O)C(O)C(Oc2ccc3c(O)c(NC(=O)c4ccc(O)c(CC=C(C)C)c4)c(=O)oc3c2C)OC1(C)C,IC50,second compound 0.0316 µM,> 10 µM
same,IC50,second compound 0.1 µM,> 10 µM
same,IC50,second compound 0.316 µM,> 10 µM
same,IC50,second compound 1 µM,> 10 µM
same,IC50,second compound 3.16 µM,> 10 µM
same,IC50,second compound 10 µM,> 10 µM
same,"viability, T/C",[1],110%
same,"viability, T/C",[2],98%
same,"viability, T/C",[3],97.7%
same,"viability, T/C",[4],102%
same,"viability, T/C",[5],116%
same,"viability, T/C",[6],100%
same,"viability, T/C",[7],104%
same,"viability, T/C",[8],96.3%
same,"viability, T/C",[9],107%
same,"viability, T/C",[10],118%
same,"viability, T/C",[11],126%
same,"viability, T/C",[12],114%
same,"viability, T/C",[13],123%
same,"viability, T/C",[14],108%
same,"viability, T/C",[15],109%
same,"viability, T/C",[16],103%
same,"viability, T/C",[17],122%
same,"viability, T/C",[18],105%
same,"viability, T/C",[19],102%
same,"viability, T/C",[20],108%
same,"viability, T/C",[21],101%
same,"viability, T/C",[22],108%
same,"viability, T/C",[23],129%
same,"viability, T/C",[24],104%
same,"viability, T/C",[25],106%
same,"viability, T/C",[26],92.8%
same,"viability, T/C",[27],99.8%
same,"viability, T/C",[28],105%
same,"viability, T/C",[29],125%
same,"viability, T/C",[30],114%
same,"viability, T/C",[31],116%
same,"viability, T/C",[32],94.7%
same,"viability, T/C",[33],103%
same,"viability, T/C",[34],110%
same,"viability, T/C",[35],117%
same,"viability, T/C",[36],106%
COc1cc(C2c3cc4c(cc3C(OC3OC5COC(C)OC5C(O)C3O)C3COC(=O)C23)OCO4)cc(OC)c1O (stereo not drawn) + Cc1cccc(N(C)C(=O)C2C(O)CCN2c2nc(C)cc(C(F)(F)F)c2C#N)c1,IC50,second compound 0.0316 µM,6.73 µM
same,IC50,second compound 0.1 µM,> 10 µM
same,IC50,second compound 0.316 µM,7.65 µM
same,IC50,second compound 1 µM,> 10 µM
same,IC50,second compound 3.16 µM,> 10 µM
same,IC50,second compound 10 µM,> 10 µM
same,"viability, T/C",[1],111%
same,"viability, T/C",[2],108%
same,"viability, T/C",[3],76.4%
same,"viability, T/C",[4],72.2%
same,"viability, T/C",[5],52.5%
same,"viability, T/C",[6],47.6%
same,"viability, T/C",[7],101%
same,"viability, T/C",[8],84.6%
same,"viability, T/C",[9],72.9%
same,"viability, T/C",[10],72.8%
same,"viability, T/C",[11],55%
same,"viability, T/C",[12],50.8%
same,"viability, T/C",[13],102%
same,"viability, T/C",[14],96.3%
same,"viability, T/C",[15],83.4%
same,"viability, T/C",[16],74.2%
same,"viability, T/C",[17],58.9%
same,"viability, T/C",[18],47.2%
same,"viability, T/C",[19],112%
same,"viability, T/C",[20],86.1%
same,"viability, T/C",[21],81.9%
same,"viability, T/C",[22],74.9%
same,"viability, T/C",[23],63.7%
same,"viability, T/C",[24],47.3%
same,"viability, T/C",[25],98%
same,"viability, T/C",[26],101%
same,"viability, T/C",[27],71.8%
same,"viability, T/C",[28],74.4%
same,"viability, T/C",[29],62.2%
same,"viability, T/C",[30],51.2%
same,"viability, T/C",[31],101%
same,"viability, T/C",[32],77.7%
same,"viability, T/C",[33],70.6%
same,"viability, T/C",[34],75.9%
same,"viability, T/C",[35],71.1%
same,"viability, T/C",[36],55.9%
C=CCn1c(=O)c2cnc(Nc3ccc(N4CCN(C)CC4)cc3)nc2n1-c1cccc(C(C)(C)O)n1 + COC1C(OC(N)=O)C(O)C(Oc2ccc3c(O)c(NC(=O)c4ccc(O)c(CC=C(C)C)c4)c(=O)oc3c2C)OC1(C)C,IC50,second compound 0.0316 µM,> 1 µM
same,IC50,second compound 0.1 µM,> 1 µM
same,IC50,second compound 0.316 µM,> 1 µM
same,IC50,second compound 1 µM,> 1 µM
same,IC50,second compound 3.16 µM,> 1 µM
same,IC50,second compound 10 µM,> 1 µM
same,"viability, T/C","second compound 0.0316 µM, first compound 0.00316 µM",90.2%
same,"viability, T/C","second compound 0.0316 µM, first compound 0.01 µM",98.2%
same,"viability, T/C",[1],99.4%
same,"viability, T/C",[2],90.2%
same,"viability, T/C",[3],94.6%
same,"viability, T/C",[4],77.4%
same,"viability, T/C","second compound 0.1 µM, first compound 0.00316 µM",102%
same,"viability, T/C","second compound 0.1 µM, first compound 0.01 µM",102%
same,"viability, T/C",[7],109%
same,"viability, T/C",[8],95%
same,"viability, T/C",[9],98.7%
same,"viability, T/C",[10],75%
same,"viability, T/C","second compound 0.316 µM, first compound 0.00316 µM",97.7%
same,"viability, T/C","second compound 0.316 µM, first compound 0.01 µM",95.1%
same,"viability, T/C",[13],94.8%
same,"viability, T/C",[14],104%
same,"viability, T/C",[15],104%
same,"viability, T/C",[16],70.7%
same,"viability, T/C","second compound 1 µM, first compound 0.00316 µM",108%
same,"viability, T/C","second compound 1 µM, first compound 0.01 µM",93.9%
same,"viability, T/C",[19],92.1%
same,"viability, T/C",[20],99.5%
same,"viability, T/C",[21],90%
same,"viability, T/C",[22],74%
same,"viability, T/C","second compound 3.16 µM, first compound 0.00316 µM",107%
same,"viability, T/C","second compound 3.16 µM, first compound 0.01 µM",92.9%
same,"viability, T/C",[25],105%
same,"viability, T/C",[26],96.6%
same,"viability, T/C",[27],96.4%
same,"viability, T/C",[28],76.5%
same,"viability, T/C","second compound 10 µM, first compound 0.00316 µM",99.1%
same,"viability, T/C","second compound 10 µM, first compound 0.01 µM",101%
same,"viability, T/C",[31],96.3%
same,"viability, T/C",[32],98.7%
same,"viability, T/C",[33],95%
same,"viability, T/C",[34],68%
CC(C)n1c(=O)n(C)c2cnc3cc(F)c(-c4ccc(OCCCN5CCCCC5)nc4)cc3c21 + COC1C(OC(N)=O)C(O)C(Oc2ccc3c(O)c(NC(=O)c4ccc(O)c(CC=C(C)C)c4)c(=O)oc3c2C)OC1(C)C,IC50,second compound 0.0316 µM,< 0.0316 µM
same,IC50,second compound 0.1 µM,< 0.0316 µM
same,IC50,second compound 0.316 µM,< 0.0316 µM
same,IC50,second compound 1 µM,< 0.0316 µM
same,IC50,second compound 3.16 µM,< 0.0316 µM
same,IC50,second compound 10 µM,< 0.0316 µM
same,"viability, T/C",[1],38.8%
same,"viability, T/C",[2],44.1%
same,"viability, T/C",[3],39.9%
same,"viability, T/C",[4],47.7%
same,"viability, T/C",[5],46.4%
same,"viability, T/C",[6],45.8%
same,"viability, T/C",[7],34.7%
same,"viability, T/C",[8],40.6%
same,"viability, T/C",[9],41.8%
same,"viability, T/C",[10],41%
same,"viability, T/C",[11],38.9%
same,"viability, T/C",[12],39.9%
same,"viability, T/C",[13],38.9%
same,"viability, T/C",[14],39.2%
same,"viability, T/C",[15],46.5%
same,"viability, T/C",[16],44.8%
same,"viability, T/C",[17],42%
same,"viability, T/C",[18],43.5%
same,"viability, T/C",[19],40.9%
same,"viability, T/C",[20],44.4%
same,"viability, T/C",[21],40.4%
same,"viability, T/C",[22],39.6%
same,"viability, T/C",[23],41.8%
same,"viability, T/C",[24],41.8%
same,"viability, T/C",[25],40.5%
same,"viability, T/C",[26],41.9%
same,"viability, T/C",[27],41.7%
same,"viability, T/C",[28],47.2%
same,"viability, T/C",[29],42.6%
same,"viability, T/C",[30],41.3%
same,"viability, T/C",[31],48.5%
same,"viability, T/C",[32],39.8%
same,"viability, T/C",[33],37.8%
same,"viability, T/C",[34],38.3%
same,"viability, T/C",[35],44.6%
same,"viability, T/C",[36],37.5%
